Experimental data published in patent US20220062247A1, “USE OF A PAR-1 ANTAGONIST FOR THE TREATMENT OF A CHRONIC INFLAMMATORY INTESTINAL DISEASE” (CVASTHERA, priority 2018, published 2022).

Key:
[1] = tested on: inflammatory bowel disease, Dextran Sulphate sodium (DSS); experiment: Dextran Sulphate sodium (DSS) model of inflammatory bowel disease in mice (body weight, DAI, macroscopic damage score, MPO); type: in vivo, mice (C57B16); set-up: Disease activity index, D1 / Disease activity index, D2 / Disease activity index, D3 / Disease activity index, D4 / Disease activity index, D5 / Disease activity index, D6 / Disease activity index, D7 / macroscopic damage score: scale not given here
Text: The purpose of this study is to assess the effectiveness of a PAR-1 antagonist according to the invention, 3-2-(chloro-phenyl)-1-[4-(4-fluoro-benzyl)-piperazine-1-yl]propenone (CSI) in a model of an inflammatory bowel disease, Dextran Sulphate sodium (DSS) in mice. This DSS model is described in the publication of Choi et al., 2010, in J. Biomed. Biotechnol., 2010:943516; doi: 10.1155/2010/943516.
This model features a cytokine profile Th1 in its acute phase, periods of remission and relapses, it is consequently very similar to ulcerous colitis. The DSS distributed in the drinking water can cause an inflammation of the digestive tract and produce colorectal tumours in the rodent. The DSS is widely used as an animal model of human inflammatory diseases of the digestive tract.
The present study is conducted in 7-week-old mice (C57B16). The 5-aminosalicylic acid serves as a positive comparative example.
The first day of the study starts with the daily administration of a beverage containing DSS at 5% p/p in water to the mice, until the day of sacrifice. The development of the disease is estimated on a daily basis, with accurate weighting of the mice, the assessment of the consistence of the excrements as well as the presence of blood in the faeces with the Hemoccult® paper test. The DAI score is calculated as indicated in Example 1.
Each day, groups of mice receive per os CSI at different concentrations, or 5-aminosalicylic acid (5-ASA), or the vehicle alone, that is to say carboxymethyl cellulose (CMC) at 1%.
The mice are sacrificed 7 days after the beginning of the treatment. The colon is excised and the macroscopic damages are assessed. The colon is then cut into 4 pieces, the distal portion is placed in an Eppendorf tube and stored at −80° C. until the measurement of the activity of myeloperoxidase and the quantification of proteins. The proximal portion is kept in formaline at 10% for future histological analyses. The two other central portions are placed in Eppendorf tubes and stored at −80° C. for future analyses.
On day 7, after having sacrificed the animals, the colon is removed. The macroscopic damage score, assessed as described in Example 1, and the myeloperoxidase (MPO) activity are determined.

[2] = tested on: inflammatory bowel disease induced by 2,4,6-trinitrobenzenesulfonic acid (TNBS); experiment: Colitis induced by intra-colonical TNBS in rats (body weight, DAI score, colon wall thickness, macroscopic damage score, MPO); type: in vivo, male laboratory rat of the Wistar strain
Text: The purpose of this study is to assess the effectiveness of two PAR-1 antagonists, vorapaxar and 3-2-(chloro-phenyl)-1-[4-(4-fluoro-benzyl)-piperazine-1-yl]propenone (hereinafter, referred to as CSI) in a model of an inflammatory bowel disease induced by 2,4,6-trinitrobenzenesulfonic acid (TNBS) in a male laboratory rat of the Wistar strain. This model is described in the publication of Whittle et al., 2003, in Methods Mol. Biol., 225, 209-222.
In this induced colitis model, the inflammatory reaction is measured every day and is well established 7 days after intra-colonical administration of TNBS.
(§1) Different parameters are measured: the weight of the rats, the presence of blood in the faeces and the diarrhoeas assessed by the disease activity index (DAI score), the intensity of pain (assessed by Von Frey filaments technique measured on days 3 and 7).
The rats are sacrificed 7 days after the beginning of the treatment and the macroscopic damages, the oedema and a marker of the inflammation, myeloperoxidase (MPO), are quantified.
The experiments with the PAR-1 antagonists are carried out in two studies, relating to vorapaxar and CSI, respectively.
The colitis is induced by intra-colonical administration of 2,4,6-trinitrobenzenesulfonic acid (TNBS) (30 mg of TNBS in 0.25 ml of a 50% ethanol/NaCl solution) via a catheter (polyethylene (PE)-60) inserted 8 cm proximally from the anus.
Four groups of 10 rats receive an intra-colonical administration of TNBS, as well as a per os treatment of vorapaxar at the dose of 2.5 mg/kg/day or of CSI at doses of 10 and 40 mg/kg/day or of prednisolone (a compound proposed by the prior art for the treatment of IBDs) at the dose of 3 mg/kg/day. The per os treatments start 1 h before the intra-colonical administration of TNBS.
As a negative comparative example, 1 group of 10 rats receives an intra-colonical administration of TNBS and of the vorapaxar vehicle (phosphate buffered saline—PBS) or of the CSI vehicle (carboxymethyl cellulose—CMC at 1%) per os daily.
Moreover, 1 group of 6 control rats receives an intra-colonical administration of NaCl instead of TNBS.
The DAI score is determined as follows. The development of the disease is estimated on a daily basis. The consistence of the excrements, as well as the presence of blood in the faeces assessed with the Hemoccult® paper test, are respectively quantified by the seriousness scales of Table 3 hereinbelow. The obtained values are added together to obtain the DAI score.
The macroscopic damage score is assessed according to the protocol described in the publication of Comera et al., 1999, Dig. Dis. Sci. 44: 1448-1457, as follows. On day 7 after induction of the colitis, the rats are sacrificed by carbon dioxide CO2 inhalation, the colon (from the anus to the Caecum) is removed and the macroscopic damages are assessed according to the parameters observed and presented in Table 4 hereinbelow, to determine the macroscopic damage score.

[3] = tested on: nociceptive response induced by TNBS; experiment: Nociceptive response (allodynia) by Von Frey filaments technique in TNBS colitis rats; type: in vivo, rat; details: 3 mg/kg/day, 7 days after colitis induction
Method: as §1
The intensity of the pain is measured by the Von Frey filaments technique on days […], according to the protocol described in the publication of Auge et al., 2013, Eur. J. Pharmacol. 707: 32-40.
The effect on the nociceptive response, measured by Von Frey filaments technique according to the mass of Von Frey filaments, is shown in FIG. 10 for prednisolone and in FIG. 11 for vorapaxar.

[4] = DSS 5%, Group 5, 50 mg/kg/24 h per os, Moy
[5] = DSS mice, 50 mg/kg daily oral (Group 5), all observed points
[6] = DSS 5%, Group 2, 10 mg/kg/24 h per os, Moy
[7] = DSS 5%, Group 3, 40 mg/kg/24 h per os, Moy

Nc1ccc(O)c(C(=O)O)c1 [5-ASA, 5-aminosalicylic acid, reference compound]
Disease activity index, D1 [1, 4]: 1.64 | Disease activity index, D2 [1, 4]: 1.25 | Disease activity index, D3 [1, 4]: 1.92 | Disease activity index, D4 [1, 4]: 3.50 | Disease activity index, D5 [1, 4]: 4.00 | Disease activity index, D6 [1, 4]: 4.00 | Disease activity index, D7 [1, 4]: 3.20 | Variation of the body weight of the mice in comparison with day D0, D1-D0 [1, 4]: 0.64 g | Variation of the body weight of the mice in comparison with day D0, D2-D0 [1, 4]: 0.64 g | Variation of the body weight of the mice in comparison with day D0, D3-D0 [1, 4]: 1.05 g | Variation of the body weight of the mice in comparison with day D0, D4-D0 [1, 4]: -0.03 g | Variation of the body weight of the mice in comparison with day D0, D5-D0 [1, 4]: -1.67 g | Variation of the body weight of the mice in comparison with day D0, D6-D0 [1, 4]: -3.68 g | Variation of the body weight of the mice in comparison with day D0, D7-D0 [1, 4]: -4.76 g | macroscopic damage score ([1]; DSS 5%, Group 5, 50 mg/kg/24 h per os, day 7, Moy): 6.5 | MPO activity ([1]; DSS 5%, Group 5, 50 mg/kg/24 h per os, day 7, colon, Moy): 9.34 mU/mg proteins | macroscopic damage score ([1]; DSS mice, 50 mg/kg (Group 5), vs vehicle group (Group 4)): significantly reduces | increase of the disease activity index [1, 5]: prevents neither | weight loss [1, 5]: prevents neither

O=C(/C=C/c1ccccc1Cl)N1CCN(Cc2ccc(F)cc2)CC1 [CSI, 3-2-(chloro-phenyl)-1-[4-(4-fluoro-benzyl)-piperazine-1-yl]propenone]
disease activity index (DAI) ([2]; 10 mg/kg daily, 7th day): significantly reduces | MPO activity ([2]; 40 mg/kg/day, day 7): significantly reduced | macroscopic damage score ([2]; 10 and 40 mg/kg/day (tested doses), day 7, vs vehicle group): significantly reduces | weight loss (body weight) ([2]; 10 or 40 mg/kg/day per os): alleviate | Disease activity index, D1 [1, 6]: 1.40 | Disease activity index, D2 [1, 6]: 1.35 | Disease activity index, D3 [1, 6]: 2.00 | Disease activity index, D4 [1, 6]: 3.75 | Disease activity index, D5 [1, 6]: 4.00 | Disease activity index, D6 [1, 6]: 4.00 | Disease activity index, D7 [1, 6]: 2.90 | Variation of the body weight of the mice in comparison with day D0, D1-D0 [1, 6]: 0.67 g | Variation of the body weight of the mice in comparison with day D0, D2-D0 [1, 6]: 0.44 g | Variation of the body weight of the mice in comparison with day D0, D3-D0 [1, 6]: 0.45 g | Variation of the body weight of the mice in comparison with day D0, D4-D0 [1, 6]: -0.42 g | Variation of the body weight of the mice in comparison with day D0, D5-D0 [1, 6]: -2.15 g | Variation of the body weight of the mice in comparison with day D0, D6-D0 [1, 6]: -3.79 g | Variation of the body weight of the mice in comparison with day D0, D7-D0 [1, 6]: -5.19 g | macroscopic damage score ([1]; DSS 5%, Group 2, 10 mg/kg/24 h per os, day 7, Moy): 5.2 | MPO activity ([1]; DSS 5%, Group 2, 10 mg/kg/24 h per os, day 7, colon, Moy): 12.99 mU/mg proteins | Disease activity index, D1 [1, 7]: 2.00 | Disease activity index, D2 [1, 7]: 1.10 | Disease activity index, D3 [1, 7]: 1.50 | Disease activity index, D4 [1, 7]: 2.80 | Disease activity index, D5 [1, 7]: 4.00 | Disease activity index, D6 [1, 7]: 4.00 | Disease activity index, D7 [1, 7]: 3.00 | Variation of the body weight of the mice in comparison with day D0, D1-D0 [1, 7]: -0.08 g | Variation of the body weight of the mice in comparison with day D0, D2-D0 [1, 7]: -0.07 g | Variation of the body weight of the mice in comparison with day D0, D3-D0 [1, 7]: -0.19 g | Variation of the body weight of the mice in comparison with day D0, D4-D0 [1, 7]: -0.68 g | Variation of the body weight of the mice in comparison with day D0, D5-D0 [1, 7]: -1.07 g | Variation of the body weight of the mice in comparison with day D0, D6-D0 [1, 7]: -2.69 g | Variation of the body weight of the mice in comparison with day D0, D7-D0 [1, 7]: -4.00 g | macroscopic damage score ([1]; DSS 5%, Group 3, 40 mg/kg/24 h per os, day 7, Moy): 4.0 | MPO activity ([1]; DSS 5%, Group 3, 40 mg/kg/24 h per os, day 7, colon, Moy): 6.9 mU/mg proteins | disease activity index ([1]; DSS mice, 10 mg/kg daily (Group 2), 7th day): significantly reduces | MPO activity ([1]; DSS mice, 40 mg/kg (Group 3)): strongly reduced | disease activity index ([1]; DSS mice, 40 mg/kg (Group 3), 4th and 7th day, vs vehicle group (Group 4)): significantly reduced | weight loss ([1]; DSS mice, 40 mg/kg (Group 3), 6th day): significantly reduces | daily signs of colitis ([1]; DSS mice, 10 and 40 mg/kg, seems more effective than 5-ASA): reduces, significantly and in a dose-dependent way | macroscopic damage score ([1]; DSS mice, both tested doses 10 and 40 mg/kg (Groups 2 and 3), vs vehicle group (Group 4)): significantly reduces

C[C@]12C=CC(=O)C=C1CC[C@@H]1[C@@H]2[C@@H](O)C[C@@]2(C)[C@H]1CC[C@]2(O)C(=O)CO [prednisolone]
allodynia-type response (Von Frey) [3]: only a partial inhibition | apparition of oedema (thickness of the wall of the colon) ([2]; 3 mg/kg daily oral, 7 days): does not prevent | disease activity index (DAI) ([2]; 3 mg/kg daily oral, all observed points): does not prevent the increase | macroscopic damage score ([2]; 3 mg/kg, day 7, vs vehicle group): significantly reduces | weight loss (body weight) ([2]; 3 mg/kg/day per os): alleviate | MPO activity ([2]; 3 mg/kg/day, day 7, vs vehicle group): significantly reduce
